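Interpolation was linear, between the two tested concentrations surrounding the appropriate level; five concentrations were tested over 48 hours in 96-well plates. GI50 marks 50% less growth.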 Activity calls are given as the source filed them. Rule as the data show it: active = GI50 up to about 1.1 µM and inactive = higher.
Tests used:
Test in all cases: inhibition of tumour cell growth, NCI panel, 48 h
CAKI-1 = tested on: CAKI-1
COLO 205 = tested on: COLO 205
HOP-62 = tested on: HOP-62
HT-29 = tested on: HT-29
Hs-578T = tested on: Hs-578T
K562 = tested on: K562
LOX IMVI = tested on: LOX IMVI
NCI-H23 = tested on: NCI-H23
OVCAR-4 = tested on: OVCAR-4
SF-295 = tested on: SF-295
SF-539 = tested on: SF-539
SK-MEL-5 = tested on: SK-MEL-5
SK-OV-3 = tested on: SK-OV-3
SN12C = tested on: SN12C
TK-10 = tested on: TK-10
A498 = tested on: A498
CCRF-CEM = tested on: CCRF-CEM
RPMI-8226 = tested on: RPMI-8226

Measured: GI50

O=C1c2ccc3ccccc3c2CCC1N1CCCCC1 (stereo not drawn)
inactive: CAKI-1 16 µM | COLO 205 19.5 µM | HOP-62 18.7 µM | HT-29 20.5 µM | Hs-578T 20.3 µM | K562 17.6 µM | LOX IMVI 19.2 µM | NCI-H23 19.7 µM | OVCAR-4 16.6 µM | SF-295 19.3 µM | SF-539 14.6 µM | SK-MEL-5 17 µM | SK-OV-3 22 µM | SN12C 15.6 µM | TK-10 16.1 µM

CNC(=O)C(C)C1C(=O)/C(=C(O)/C=C\C(C)=C\C(C)C2OC3(C)OC(C=CC34CO4)C2C)C(=O)N1C1CCC(O)C(C)O1 (stereo not drawn)
inactive: A498 > 100 µM | CAKI-1 > 100 µM | CCRF-CEM > 100 µM | COLO 205 > 100 µM | HOP-62 > 100 µM | HT-29 > 100 µM | K562 > 100 µM | RPMI-8226 > 100 µM | SF-539 > 100 µM | SK-MEL-5 > 100 µM | SK-OV-3 > 100 µM | SN12C > 100 µM | TK-10 > 100 µM

C/C=C(/CBr)CCC(Br)C(C)(C)Cl.C/C=C(\CBr)CCC(Br)C(C)(C)Cl (stereo not drawn)
inactive: A498 > 10 µM | CAKI-1 > 10 µM | CCRF-CEM > 10 µM | COLO 205 > 10 µM | HOP-62 > 10 µM | HT-29 > 10 µM | Hs-578T > 10 µM | K562 > 10 µM | NCI-H23 > 10 µM | OVCAR-4 > 10 µM | RPMI-8226 > 10 µM | SF-295 > 10 µM | SF-539 > 10 µM | SK-MEL-5 > 10 µM | SK-OV-3 > 10 µM | SN12C > 10 µM | TK-10 > 10 µM

Clc1ccc(OCc2nnc(CCCCCCCCc3nnc(COc4ccc(Cl)cc4Cl)o3)o2)c(Cl)c1
inactive: A498 > 100 µM | CAKI-1 24.6 µM | COLO 205 > 100 µM | HT-29 > 100 µM | K562 18.2 µM | NCI-H23 > 100 µM | OVCAR-4 92.9 µM | RPMI-8226 58.9 µM | SF-295 85.1 µM | SK-MEL-5 > 100 µM | SK-OV-3 > 100 µM | SN12C > 100 µM | TK-10 > 100 µM

CC1=C(C(=O)OCCc2ccc([N+](=O)[O-])cc2)C(c2ccccc2[N+](=O)[O-])C(C(=O)OC(C)C)=C(C)N1 (stereo not drawn)
inactive: CAKI-1 3.4 µM | CCRF-CEM 2.36 µM | COLO 205 6.01 µM | HOP-62 8.67 µM | HT-29 5.07 µM | Hs-578T 4.38 µM | K562 3.39 µM | LOX IMVI 4.14 µM | NCI-H23 3.97 µM | OVCAR-4 37.9 µM | RPMI-8226 2.93 µM | SF-295 2.74 µM | SF-539 4.15 µM | SK-MEL-5 2.24 µM | SK-OV-3 5.81 µM | SN12C 6.87 µM | TK-10 5.87 µM

COc1c(C)c(C/C=C(\C)CC/C=C(\C)CC/C=C(\C)CC/C=C(\C)CCC=C(C)C)c(OC)c(OC)c1OC
inactive: CAKI-1 81.3 µM | CCRF-CEM 23.9 µM | COLO 205 > 100 µM | HOP-62 15.6 µM | HT-29 88.3 µM | Hs-578T > 100 µM | K562 24.4 µM | LOX IMVI 17.1 µM | NCI-H23 17.6 µM | OVCAR-4 19.9 µM | SF-295 19.9 µM | SF-539 > 100 µM | SK-MEL-5 16.7 µM | SK-OV-3 > 100 µM | SN12C 22.9 µM | TK-10 24 µM

O=C(Cc1ccccc1)N/N=C/c1ccccc1O
inactive: CAKI-1 5.92 µM | CCRF-CEM 4.94 µM | COLO 205 4.09 µM | HT-29 4.84 µM | Hs-578T 36.1 µM | K562 13.9 µM | LOX IMVI 9.42 µM | NCI-H23 17.8 µM | OVCAR-4 15.7 µM | RPMI-8226 15.9 µM | SF-295 10.3 µM | SF-539 24.8 µM | SK-MEL-5 12 µM | SK-OV-3 15.9 µM | SN12C 17.2 µM | TK-10 22.4 µM

CC1(C)S[C@@H]2[C@H](NC(=O)/C=C/c3ccccc3)C(=O)N2[C@H]1C(=O)O
inactive: CAKI-1 > 100 µM | CCRF-CEM > 100 µM | COLO 205 > 100 µM | HOP-62 > 100 µM | HT-29 > 100 µM | Hs-578T > 100 µM | LOX IMVI > 100 µM | NCI-H23 > 100 µM | OVCAR-4 > 100 µM | RPMI-8226 > 100 µM | SF-295 > 100 µM | SF-539 > 100 µM | SK-MEL-5 > 100 µM | SK-OV-3 > 100 µM | SN12C > 100 µM | TK-10 > 100 µM

CCC[C@@H]1C(=O)N=C(N)N1C(=O)OCc1ccccc1
inactive: A498 > 100 µM | CAKI-1 > 100 µM | COLO 205 > 100 µM | HOP-62 > 100 µM | HT-29 > 100 µM | Hs-578T > 100 µM | K562 > 100 µM | LOX IMVI > 100 µM | NCI-H23 > 100 µM | OVCAR-4 > 100 µM | RPMI-8226 > 100 µM | SF-295 > 100 µM | SK-MEL-5 > 100 µM | SN12C > 100 µM | TK-10 > 100 µM

From ChEMBL document CHEMBL1201862, “PubChem BioAssay data set” (2004)
